Assay: xn = mol fraction of the nth substance listed
Details: 101 kPa, Liquid

Clc1ccccc1 [chlorobenzene] + CCCO
mass density [kg/m3]
Details	288.15 K	293.15 K	298.15 K	303.15 K	308.15 K	313.15 K
x2 = 0	1111.81	1106.43	1101.04	1095.64	1090.23	1084.82
x2 = 0.0254	1105.92	1100.51	1095.1	1089.69	1084.26	1078.83
x2 = 0.0513	1100.01	1094.6	1089.18	1083.75	1078.3	1072.86
x2 = 0.0726	1095.18	1089.77	1084.35	1078.91	1073.46	1068.03
x2 = 0.0738	1094.9	1089.49	1084.07	1078.63	1073.18	1067.73
x2 = 0.1016	1088.48	1083.08	1077.66	1072.22	1066.77	1061.3
x2 = 0.1058	1087.51	1082.11	1076.69	1071.26	1065.81	1060.35
x2 = 0.1365	1080.3	1074.91	1069.5	1064.08	1058.63	1053.17
x2 = 0.2019	1064.7	1059.35	1053.96	1048.56	1043.17	1037.75
x2 = 0.2472	1053.55	1048.23	1042.89	1037.53	1032.14	1026.73
x2 = 0.2984	1040.5	1035.23	1029.94	1024.62	1019.26	1013.88
x2 = 0.3443	1028.6	1023.38	1018.13	1012.85	1007.53	1002.2
x2 = 0.4027	1012.95	1007.78	1002.6	997.378	992.12	986.836
x2 = 0.4952	986.837	981.797	976.724	971.618	966.472	961.296
x2 = 0.5492	970.777	965.817	960.824	955.797	950.728	945.63
x2 = 0.5975	955.977	951.086	946.167	941.211	936.213	931.183
x2 = 0.6447	940.98	936.176	931.338	926.463	921.545	916.599
x2 = 0.699	923.003	918.296	913.559	908.798	903.973	899.127
x2 = 0.7494	905.686	901.079	896.443	891.773	887.057	882.312
x2 = 0.8008	887.239	882.746	878.223	873.664	869.063	864.438
x2 = 0.8473	869.896	865.508	861.093	856.643	852.152	847.622
x2 = 0.8955	851.18	846.915	842.621	838.296	833.934	829.53
x2 = 0.9192	841.722	837.516	833.28	829.014	824.709	820.375
x2 = 0.9497	829.134	825.009	820.857	816.677	812.457	808.213

Clc1ccccc1 [chlorobenzene] + CC(C)(C)O
mass density [kg/m3]
Details	303.15 K	308.15 K	313.15 K	318.15 K	323.15 K
x2 = 0	1095.64	1090.23	1084.82	1079.42	1073.97
x2 = 0.0514	1078.9	1073.42	1067.94	1062.44	1056.94
x2 = 0.1001	1063.67	1058.13	1052.58	1047.01	1041.43
x2 = 0.1498	1048.32	1042.74	1037.14	1031.52	1025.89
x2 = 0.199	1033.1	1027.51	1021.89	1016.24	1010.56
x2 = 0.2505	1017.18	1011.59	1005.96	1000.3	994.615
x2 = 0.3	1001.8	996.225	990.603	984.94	979.276
x2 = 0.351	985.908	980.337	974.721	969.053	963.346
x2 = 0.3707	979.707	974.152	968.545	962.885	957.187
x2 = 0.3997	970.62	965.075	959.477	953.823	948.132
x2 = 0.45	954.724	949.206	943.631	937.997	932.311
x2 = 0.5	938.79	933.303	927.755	922.142	916.464
x2 = 0.5499	922.845	917.39	911.872	906.286	900.633
x2 = 0.6003	906.668	901.248	895.76	890.201	884.578
x2 = 0.6499	890.559	885.172	879.716	874.189	868.592
x2 = 0.7002	874.261	868.904	863.477	857.976	852.408
x2 = 0.7482	858.49	853.167	847.772	842.3	836.757
x2 = 0.7998	841.567	836.267	830.896	825.45	819.931
x2 = 0.8498	825.04	819.768	814.423	809	803.512
x2 = 0.9004	808.338	803.082	797.754	792.35	786.87
